Source: US20220390432A1, “METHODS OF CHARACTERIZING AND UTILIZING AGENT-CONDENSATE INTERACTIONS” (Whitehead Institute for Biomedical Research, priority 2019, published 2022)
“Also recorded” adds a separate entry of the source.

Experiments:
MED1 = molecular target: T1, MED1 (Homo sapiens, UniProt Q15648); assay: In vitro droplet assay, small molecule partitioning into MED1 condensates; format: binding; details: for partitioning / incorporation into MED1 droplets: confocal fluorescence, Example 2: 125 mM NaCl, 10% PEG, 10 μM protein, fluorescent or fluorescently labeled drug
T1 construct: MED1—amino acids 600-1581; 6xHis (N); made in house; host or cells: LOBSTR cells (E. coli)
T1 sequence (Q15648 600-1581): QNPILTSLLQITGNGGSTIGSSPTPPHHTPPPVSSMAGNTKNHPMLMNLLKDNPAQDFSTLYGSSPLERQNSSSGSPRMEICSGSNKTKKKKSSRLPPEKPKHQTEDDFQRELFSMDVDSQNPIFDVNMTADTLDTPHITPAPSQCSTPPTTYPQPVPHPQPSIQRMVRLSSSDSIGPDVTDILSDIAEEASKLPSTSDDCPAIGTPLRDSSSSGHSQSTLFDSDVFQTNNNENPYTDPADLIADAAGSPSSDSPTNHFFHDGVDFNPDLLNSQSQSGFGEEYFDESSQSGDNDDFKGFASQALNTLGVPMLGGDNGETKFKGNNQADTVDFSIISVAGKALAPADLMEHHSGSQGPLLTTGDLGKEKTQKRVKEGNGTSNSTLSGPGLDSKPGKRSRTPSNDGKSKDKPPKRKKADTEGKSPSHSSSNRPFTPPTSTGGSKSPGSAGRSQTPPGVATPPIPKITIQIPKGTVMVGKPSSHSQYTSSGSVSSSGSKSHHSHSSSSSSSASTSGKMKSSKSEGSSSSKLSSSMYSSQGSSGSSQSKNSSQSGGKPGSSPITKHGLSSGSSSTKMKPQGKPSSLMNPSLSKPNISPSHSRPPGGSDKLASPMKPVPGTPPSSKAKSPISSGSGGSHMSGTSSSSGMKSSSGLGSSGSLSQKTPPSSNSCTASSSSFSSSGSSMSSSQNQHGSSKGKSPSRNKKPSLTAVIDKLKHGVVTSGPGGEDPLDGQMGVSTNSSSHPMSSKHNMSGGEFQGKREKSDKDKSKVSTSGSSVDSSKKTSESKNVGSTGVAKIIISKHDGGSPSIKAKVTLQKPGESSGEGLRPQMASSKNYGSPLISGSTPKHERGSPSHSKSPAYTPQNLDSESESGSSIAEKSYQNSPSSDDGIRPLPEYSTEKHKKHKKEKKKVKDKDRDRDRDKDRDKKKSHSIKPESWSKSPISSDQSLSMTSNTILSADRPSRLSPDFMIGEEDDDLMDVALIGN
Description: (§1) Recombinant BFP, GFP, or mCherry fusion proteins were concentrated and desalted to an appropriate protein concentration and 125 mM NaCl using Amicon Ultra centrifugal filters (30K MWCO, Millipore). Recombinant protein was added too. […] The protein solution was immediately loaded onto glass bottom 384 well plate (Cellvis P384-1.5H-N) and imaged with an Andor confocal microscope with a 150× objective. Unless indicated, images presented are of droplets settled on the glass coverslip.
(§2) Drug and small molecule concentrations used in the droplet experiments are as follows:
To analyze in vitro droplet experiments, custom Python scripts using the scikit-image package were written to identify droplets and characterize their size, shape and intensity. Droplets were segmented from average images of captured channels on various criteria: (1) an intensity threshold that was three s.d. above the mean of the image; (2) size thresholds (20 pixel minimum droplet size); and (3) a minimum circularity (circularity=4π·areaperimeter2) (circularity=4π·areaperimeter2) of 0.8 (1 being a perfect circle). After segmentation, mean intensity for each droplet was calculated while excluding pixels near the phase interface, and background-corrected by subtracting intensity of dark images of droplet formation buffer only. Droplets identified in the channel of the fluorescent protein from ten independent fields of view were quantified for each experiment. The maximum intensity of signal within the droplets was calculated for each channel, the maximum intensity in the drug channel was termed “maximum drug intensity”. To obtain the intensity of drug or dye alone in the diffuse state (termed “diffuse drug intensity”), the compound was added to droplet formation buffer at same concentration used in the droplet assay. This was then imaged on a confocal fluorescent microscope. The resulting image was processed in FIJI to obtain the fluorescent intensity of the field. To obtain the fluorescent intensity of protein droplets that bleed through in the drug channel (termed “background intensity”) protein droplets were imaged in the fluorescent channel in which the drug fluoresces and processed as above to obtain the average maximum intensity within the droplet across 10 images. The enrichment ratio was obtained by the following formula [(maximum drug intensity)−(background intensity)]/(diffuse drug intensity). The box plots show the distributions of all droplets. Each dot represents an individual droplet.

HP1α = molecular target: T2, HP1α (Homo sapiens, UniProt P45973); assay: In vitro droplet assay, small molecule partitioning into HP1α condensates; format: binding
T2 construct: HP1α—full length, amino acids 1-191; 6xHis (N); made in house; host or cells: LOBSTR cells (E. coli)
T2 sequence (P45973 whole entry, the tested form may be a part): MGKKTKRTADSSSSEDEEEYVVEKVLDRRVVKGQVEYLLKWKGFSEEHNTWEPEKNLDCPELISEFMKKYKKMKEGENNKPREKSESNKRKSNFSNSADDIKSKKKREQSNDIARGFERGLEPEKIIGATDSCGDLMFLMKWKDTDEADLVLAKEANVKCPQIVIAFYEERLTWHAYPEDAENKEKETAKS
Description: as §1, §2
(§3) To analyze in vitro droplet experiments, custom Python scripts using the scikit-image package were written to identify droplets and characterize their size, shape and intensity. […] After segmentation, mean intensity for each droplet was calculated while excluding pixels near the phase interface, and background-corrected by subtracting intensity of dark images of droplet formation buffer only. Droplets identified in the channel of the fluorescent protein from ten independent fields of view were quantified for each experiment. The maximum intensity of signal within the droplets was calculated for each channel, the maximum intensity in the drug channel was termed “maximum drug intensity”. […]

[1] = Droplet formation assay of small molecule alone without any protein; format: physicochemical; details: without any protein added
Description: as §1, with “Recombinant protein was added too.” left out

[2] = test system: MED1 condensate at the LAC array in U2OS cells; assay: LAC binding assay, FLTX1 enrichment at tethered MED1 or HP1α; format: cell-based, human; details: ESR1 not expressed, 1 uM FLTX1
Description: Constructs were assembled by NEB HIFI cloning in pSV2 mammalian expression vector containing an SV40 promoter driving expression of a mCherry-LacI fusion protein. The intrinsically disordered region of MED1, HP1α, or the activation domain of ESR1 was fused by the c-terminus to this recombinant protein, joined by the linker sequence […] (SEQ ID NO: 16). For experiments comparing FLTX1 enrichment at the array, U20S-Lac cells were plated onto chambered coverglass (1.5 Borosilicate Glass, Nunc Lab-Tek, 155409) and transfected with either MED1 IDR or HP1α constructs with lipofectamine 3000 (Thermofisher L3000015). After 24 hours, cells were treated with either 1 uM FLTX1 or vehicle (DMF). […]
For analysis of Lac array data comparing MED1 or HP1α tethered, a region of interest was called using the signal in the Lac array (561 channel). The average fluorescent signal for FLTX1 (488 channel) was then measured in the region of interest and divided by the average fluorescence in the region of interest at the Lac array. […] For analysis of Lac array data for MED1 overexpression, enrichment was calculated by dividing the average fluorescent signal for MED1 immunofluorescence at the region of interest, defined by the ER tethered at the lac array, by MED1 immunofluorescence signal at a random nuclear region.

[3] = test system: MED1 genomic occupancy in HCT116 cells; assay: MED1 ChIP-seq in HCT116 cells; format: cell-based, human; details: JQ1 for 24 hours
[4] = test system: platinated DNA at MYC locus in HCT116 cells; assay: Immunofluorescence with MYC DNA FISH after JQ1 then cisplatin; format: cell-based, human; details: 1 μM JQ1 24 hours, then 50 μM cisplatin 6 hours
[5] = test system: MED1, BRD4, and POL2 condensates in HCT116 colon cancer cell lines; assay: Small molecule effects on transcriptional condensates in GFP-tagged HCT116 cells; format: cell-based, human; details: for effect on transcriptional condensates: MED1-GFP, BRD4-GFP, POL2-GFP HCT116
Description: HCT116 colon cancer cell lines endogenously tagged with MED1-GFP, BRD4-GFP, POL2-GFP, or HP1a-GFP (Mock), all forming condensates in the nucleus.

BRD4 at super-enhancers = assay: Super-enhancers versus typical enhancers, gene expression and BRD4 genomic occupancy; format: cell-based
NPM1 = molecular target: T3, NPM1 (Homo sapiens, UniProt P06748); assay: In vitro droplet assay, small molecule partitioning into NPM1 condensates; format: binding; details: 125 mM NaCl, 10% PEG, 10 μM protein
T3 construct: NPM1—full length, amino acids 1-294; 6xHis (N); made in house; host or cells: LOBSTR cells (E. coli)
T3 sequence (P06748 whole entry, the tested form may be a part): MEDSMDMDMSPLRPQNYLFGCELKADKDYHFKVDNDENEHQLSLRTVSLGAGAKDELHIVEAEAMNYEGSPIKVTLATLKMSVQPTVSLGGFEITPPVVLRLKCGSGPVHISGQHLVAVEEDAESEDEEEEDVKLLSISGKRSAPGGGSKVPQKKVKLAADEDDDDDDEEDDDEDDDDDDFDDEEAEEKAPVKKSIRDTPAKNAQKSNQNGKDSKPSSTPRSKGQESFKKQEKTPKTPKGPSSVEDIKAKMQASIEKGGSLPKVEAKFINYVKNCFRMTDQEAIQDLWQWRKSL
Description: as §1, §2, §3

FIB1 = molecular target: T4, FIB1 (Homo sapiens, UniProt P22087); assay: In vitro droplet assay, small molecule partitioning into FIB1 condensates; format: binding; details: 125 mM NaCl, 10% PEG, 10 μM protein
T4 construct: FIB1—full length, amino acids 1-321; 6xHis (N); made in house; host or cells: LOBSTR cells (E. coli)
T4 sequence (P22087 whole entry, the tested form may be a part): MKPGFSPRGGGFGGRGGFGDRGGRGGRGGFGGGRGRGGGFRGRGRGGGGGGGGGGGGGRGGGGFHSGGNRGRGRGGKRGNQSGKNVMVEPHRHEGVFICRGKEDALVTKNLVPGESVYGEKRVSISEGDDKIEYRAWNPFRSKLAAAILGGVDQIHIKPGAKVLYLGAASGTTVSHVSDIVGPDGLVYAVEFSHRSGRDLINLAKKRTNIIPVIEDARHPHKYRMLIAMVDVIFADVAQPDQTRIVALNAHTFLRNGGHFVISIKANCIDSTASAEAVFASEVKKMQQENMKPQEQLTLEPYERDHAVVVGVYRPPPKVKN
Description: as §1, §2, §3

nucleolus = details: references (35, 36); cited from earlier work
MED1 condensates = molecular target: T5, MED1 condensates (Homo sapiens, UniProt Q15648); assay: Determination of partitioning by spectrophotometry and quantitative phase microscopy; format: binding; details: uv spectroscopy of drug remaining in solution plus condensate volume estimate
T5 construct: MED1—amino acids 600-1581; 6xHis (N); made in house; host or cells: LOBSTR cells (E. coli)
T5 sequence (Q15648 600-1581): as the sequence (Q15648 600-1581) above
Description: Here, an expression is derived briefly for the partition coefficient of a client molecule into a condensed phase in terms of quantities that are readily measurable experimentally. A sample composed of two coexisting phases is considered, named dilute and condensed, with volume fractions ϕdilute and […]. If a client molecule (e.g. a drug) is also present in the sample at an average concentration of ctotal, then mass conservation requires that
the ratio is estimated ctotal/cdilute from fluorescence spectroscopy measurements, as described in a subsequent section, while ϕcond, it is inferred from the lever rule (M. Rubinstein, R. H. Colby, Polymer Phyics (Oxford University Press, 2003) as follows: denoting the concentration of scaffold protein (e.g. MED1) by s, mass conservation gives stotal=sdiluteϕdilute+scondϕcond, in analogy with Eq. 1. Again using the requirement that the volume fractions of coexisting phases sum to 1, this can be rearranged to yield
where stotal and sdilute are measured spectrophotometrically from optical absorbance at 280 nm, and scond is measured from quantitative phase microscopy, using a coherence-controlled holographic microscope (Q-Phase, Telight (formerly TESCAN), Bmo, CZ) equipped with 40× dry objectives (NA=0.90). […]
where A is the measured absorbance (in Absorbance Units (AU)), I0 is the intensity of the incident light at a given wavelength, I is the transmitted intensity, L the path length through the sample, and c the concentration of the absorbing species. […] The partitioned drug was measured by using spin down assay. […] The supernatant was collected and measured the concentrations of the drug. The partitioned drug was calculated by subtracting from the total known concentration of drug added.
Quantitative phase measurements were performed using a coherence-controlled holographic microscope (Q-Phase, Telight (formerly TESCAN), Brno, CZ) equipped with 40× dry objectives (NA=0.90) as follows. […]
Q-PHASE software was used to construct compensated phase images from acquired holograms, which were subsequently analyzed in MATLAB using custom code. […]

Structure (SMILES): CC/C(=C(\c1ccccc1)c1ccc(OCCN(C)c2ccc([N+](=O)[O-])c3nonc23)cc1)c1ccccc1 [FLTX1]
- drug concentration in larger MED1 condensates (MED1; 20 μM (High) vs 5 μM (Low) MED1, 100 μM FLTX1): lower concentrations of the drug
- partitioning / incorporation into MED1 droplets (MED1): concentrated preferentially in MED1 droplets; also recorded: incorporated into MED1 containing condensates; also recorded: incorporates into MED1 droplets
- partitioning / incorporation into HP1α droplets (HP1α): does not incorporate
- droplet formation of small molecule alone [1]: diffuse fluorescent signal
- FLTX1 enrichment at MED1 condensate tethered to the LAC array [2]: concentrated FLTX1 at the site of the condensate; also recorded: concentrates in MED1 condensates in cells

Structure (SMILES): Cc1sc2c(c1C)C(c1ccc(Cl)cc1)=N[C@@H](CC(=O)OC(C)(C)C)c1nnc(C)n1-2 [JQ1, (S)-tert-butyl 2-(4-(4-chlorophenyl)-2,3,9-trimethyl-6H-thieno[3,2-ƒ][1,2,4]triazolo[4,3-a][1,4]diazepin-6-yl)acetate]
- MED1 ChIP-Seq at MYC after JQ1 [3]: loss of MED1 loading
- droplet formation of small molecule alone [1]: diffuse fluorescent signal
- platinated DNA at the MYC locus after JQ1 treatment [4]: concomitant reduction in platinated DNA at the MYC oncogene; also recorded: loss of signal for platinated DNA
- effect on transcriptional condensates [5]: reduces the number of, or eliminates
- effect on transcriptional condensates, long exposure ([5]; long exposure (e.g., 24 hours)): genomic release and consolidation of condensates
- MED1 condensates after JQ1 ([5]; mEGFP-MED1 tagged HCT116 cells, JQ1 for 24 hours): loss of MED1 condensates; also recorded: diminution of MED1 condensates
- effect on transcriptional condensates, short exposure ([5]; short exposure (e.g., 5 minutes)): eviction of some condensate components
- BRD4 genomic occupancy, super-enhancers versus typical enhancers (BRD4 at super-enhancers): reduces BRD4 genomic occupancy in super-enhancers to a greater extent than typical enhancers
- sensitivity of gene expression by super-enhancers versus typical enhancers (BRD4 at super-enhancers): more sensitive

Structure (SMILES): O=C1c2c(O)ccc(O)c2C(=O)c2c(NCCNCCO)ccc(NCCNCCO)c21 [Mitoxantrone]
- partitioning / incorporation into MED1 droplets (MED1): concentrated; also recorded: immediately incorporate into MED1 droplets
- partitioning into NPM1 condensates (NPM1): concentrated
- partitioning into FIB1 condensates (FIB1): concentrated
- subcellular concentration (nucleolus): concentrate in the nucleolus
- droplet formation of small molecule alone [1]: diffuse fluorescent signal
- partition ratio in MED1 condensates (MED1 condensates): approximately 100 fold
- effect on transcriptional condensates [5]: global dissolution of condensates; also recorded: cause condensate dissolution
